Reference: EP1357114A1, “Substituted pyrimidin-2,4(1H,3H)-diones as inhibitors of Matrix Metalloproteinases (MMP)” (IBFB GmbH Privates Institut für biomedizinische Forschung …, priority 2002, dated 2003)

What was measured:
MMP-9 = target: T1, MMP-9 (Homo sapiens, UniProt P14780); assay: Quantitative fluorescence assay for matrix metalloproteinases (cleavage of Mca-Pro-Leu-Gly-Leu-Dpa-Ala-Arg-NH2); type: biochemical; details: bei 10 µM
T1 construct: Das latente Enzym wird durch 30 - 60 min; Inkubation bei 37°C mit 1/100 Vol. Trypsin (10 mg/ml) aktiviert; from tissue; host or cells: human buffy coat (blood leukocytes)
T1 sequence (P14780 107-707 limits assumed): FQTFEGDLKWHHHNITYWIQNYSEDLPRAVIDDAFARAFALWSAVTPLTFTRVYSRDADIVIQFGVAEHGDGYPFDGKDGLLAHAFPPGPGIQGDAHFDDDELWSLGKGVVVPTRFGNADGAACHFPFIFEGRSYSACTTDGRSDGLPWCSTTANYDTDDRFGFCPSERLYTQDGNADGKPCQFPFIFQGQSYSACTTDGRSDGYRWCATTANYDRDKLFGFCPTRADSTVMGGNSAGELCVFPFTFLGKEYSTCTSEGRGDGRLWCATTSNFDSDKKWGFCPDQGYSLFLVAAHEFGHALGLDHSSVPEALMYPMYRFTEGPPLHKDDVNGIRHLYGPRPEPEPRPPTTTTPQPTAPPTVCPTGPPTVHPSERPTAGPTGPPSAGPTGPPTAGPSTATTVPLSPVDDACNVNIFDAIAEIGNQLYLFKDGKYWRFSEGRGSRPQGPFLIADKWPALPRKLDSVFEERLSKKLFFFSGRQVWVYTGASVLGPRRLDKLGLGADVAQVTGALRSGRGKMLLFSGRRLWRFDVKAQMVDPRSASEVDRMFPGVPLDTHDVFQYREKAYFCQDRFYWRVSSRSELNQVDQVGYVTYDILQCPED
Procedure: Native MMP-9 wurde reproduzierbar und in guter Ausbeute und Reinheit aus humanem Buffy Coat gewonnen. Hierzu wird Buffy Coat mit 10% (v/v) Triton X-100 auf eine Endkonzentration von 0,4% gebracht, 30 min. auf Eis geschüttelt und dann 1 Vol. 2-fach Bindungspuffer (40 mM Tris-HCI pH 7,5, 10 mM CaCl2, 1 M NaCI, 0,2% (v/v) Triton X-100) hinzugefügt und weitere 30 min. auf Eis geschüttelt. Die Lösung wird 15 min. bei 16 000 Upm an einem SS-34 Rotor bei 4°C abzentrifugiert und über Glaswolle filtriert. Das Filtrat wird mit Gelatine-Agarose, welche mit Bindungspuffer äquilibriert wurde, gebatcht und 1 Std. auf Eis geschüttelt. Die beladene Gelatine-Agarose wird in eine Säule überführt und mit mindestens 10 Vol. Bindungspuffer proteinfrei gespült. Die Elution der gebundenen MMP-9 erfolgt mit 2 Gelvolumen Bindungspuffer plus 5% (v/v) DMSO. Das Eluat kann zum Puffer-Austausch und gleichzeitiger Abtrennung geringer Verunreinigungen an MMP-2 über eine Gelfiltration an Sephadex G-75 aufgetrennt werden. Hierzu wird der Puffer I (20 mM Tris-HCI pH 7,5, 5 mM CaCl2, 100 mM NaCI, 0,1% (v/v) Triton X-100) verwendet. Das so gewonnene Eluat enthällt MMP-9 in den drei bekannten Zustandsformen: Monomer, Homodimer, Heterodimer. Die Reinheit des Enzyms beträgt ca. 90%, wobei die restlichen Fremdproteine Fibronektin und äußerst geringe Mengen an TIMP's sind. Das latente Enzym wird durch 30 - 60 min. Inkubation bei 37°C mit 1/100 Vol. Trypsin (10 mg/ml) aktiviert. Trypsin wird durch Zugabe von 1 mM PMSF oder mit einem spezifischen Inhibitor (TKI) gehemmt.
(§1) Durch enzymatische Spaltung des synthetischen Substrates Mca-Pro-Leu-Gly-Leu-Dpa-Ala-Arg-NH2 durch die jeweilige Kollagenase, wird die fluoreszente Gruppe Mca ((7-Methoxycoumarin-4-yl)acetyl) vom internen Quencher Dpa ((N-3-(2,4-dinitrophenyl)-L-2,3-diaminopropienyl) getrennt. Dabei erfolgt eine starke Zunahme der Fluoreszenz im Messansatz, die am Fluorimeter quantifiziert werden kann (λex 328 nm, λem 393 nm) und innerhalb der ersten Minuten linear verläuft. Eine gewisse Spezifität des Tests für Matrix-Metalloproteinasen ergibt sich einerseits aus der Aminosäuresequenz -Pro-Leu-Gly-Leu- im Substrat und andererseits durch die gewählten Inkubationsbedingungen. Matrix-Metalloproteinasen spalten das Substrat an der Bindung Gly-Leu. Gemessen wird die proteolytische Restaktivität vorinkubierter Ansätze von Enzym und Inhibitor, wobei die Substrat- und Enzymkonzentration konstant gehalten und die Inhibitorkonzentration variiert wurde. Es wurden für jeden getesteten Inhibitor drei Messreihen mit unterschiedlicher Substratkonzentration aufgenommen. Aus der zeitabhängigen Fluoreszenzzunahme wird die Enzymaktivität in Fluoreszenzeinheiten pro min berechnet. Die Bestimmung der Ki-Werte erfolgte graphisch nach der Methode von DIXON (1953) durch Auftragung der reziproken Reaktionsgeschwindigkeit 1/v (y-Achse) gegen Inhibitorkonzentration (x-Achse).
(§2) 1984 µl Messpuffer (100mM Tris-HCI pH 7,5, 100 mM NaCI, 10 mM CaCl2, 0,05% Brij 35 bzw. 50 mM MES-NaOH, pH 6.0, 10 mM CaCl2, 100 mM NaCI, 0.05% Brij 35 im Fall der KaDo MMP-3) 2 µl Inhibitor, gelöst in DMSO, bzw. DMSO allein (nichtinhibierender Ansatz) 4 µl Enzym • 5 min. Vorinkubation des Enzym-Inhibitor-Gemischs bei Raumtemperatur unter Rühren • Start der Reaktion mit 10 µl Substrat gelöst in DMSO • Aufzeichnung der zeitabhängigen Fluoreszenzzunahme über 2 - 10 min.

[1] = target: T2, katalytische Domäne der MMP-8 (Homo sapiens, UniProt P22894); assay: as above; type: biochemical
T2 construct: dass wir statt des Gesamtenzyms nur dessen enzymatisch aktive katalytische Domäne in E. coli klonierten; made in house; host or cells: E. coli
T2 sequence (P22894 100-262 limits assumed): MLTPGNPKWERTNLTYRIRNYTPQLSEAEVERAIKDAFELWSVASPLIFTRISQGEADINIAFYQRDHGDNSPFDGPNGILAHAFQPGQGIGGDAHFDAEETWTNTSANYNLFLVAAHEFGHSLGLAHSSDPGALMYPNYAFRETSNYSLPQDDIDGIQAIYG
Excerpt: Die Nutzung der katalytischen Domäne der MMP-8 als weiteres Testenzym wurde deshalb gewählt, weil es eine hohe Stabilität besitzt und darüber hinaus als aktives Enzym vorliegt. Es muß deshalb nicht aktiviert werden, was eine der häufigsten Fehlerursachen darstellt, da die zur Aktivierung genutzten Quecksilberverbindungen häufig mit dem Testsystem bzw. dem Enzym interferieren und dadurch die Messergebnisse verfälschen werden. Die Klonierungsstrategie gestalteten wir so, dass wir statt des Gesamtenzyms nur dessen enzymatisch aktive katalytische Domäne in E. coli klonierten. Mit der konstruierten katalytischen Domäne der MMP-8 erzielten wir ein stabiles, enzymatisch aktives und hochreines Enzym, welches für die Routineuntersuchungen der inhibitorischen Aktivität der synthetisierten Inhibitoren sehr gut geeignet war und die Messergebnisse der einzelnen Messserien miteinander vergleichbar machte. Die Klonierung und Expression der katalytischen Domäne der MMP-8 wurde entsprechend den Angaben von SCHNIERER et al. (Schnierer S, Kleine T, Gote T, Hillemann A, Knäuper V, Tschesche H: The recombinant catalytic domain of human neutrophil collagenase lacks type I collagen substrate specificity. Biochem Biophys Res Comm (1993) vol. 191 No. 2, 319-326) durchgeführt.
as §1, §2

Row | SMILES | MMP-9 Hemmung (MMP-9) | Ki ([1]; Dixon plot) | MMP-8 Hemmung ([1]; bei 10 µM)
1 | CC(S)(CS)Cn1c(=O)[nH]c2ccccc2c1=O (racemic) [Beispiel 2, (R,S)-3-(2,3-Dimercapto-2-methylpropyl)chinazolin-2,4-(1H,3H)dion] | 10% Hemmung bei 10 µM | 60 µM | 
2 | Cc1cccc2c(=O)n(CC(S)CS)c(=O)[nH]c12 (racemic) [Beispiel 6, (R,S)-3-(2,3-Dimercaptopropyl)-8-methyl-chinazolin-2,4-(1H,3H)dion] | 55% Hemmung bei 10 µM |  | 43% Hemmung bei 10 µM
